According to patent US9675590B2, “Methods and pharmaceutical compositions for the treatment of myelodysplastic syndromes” (INSERM (INSTITUT NATIONAL DE LA SANTÉ ET DE LA RECHERCHE …, priority 2014, dated 2017):
Read-outs that look alike come from different tables or passages of the source.

Columns and labels:
[1] = test system: CD36+ erythroid progenitors from cord blood; test: Toxicity of KPT on CD36+ erythroid progenitors with normal EPO; format: cell-based, human; details: cord blood CD36+ at day 6 (D6) of culture; 33 nM, 100 nM, 333 nM and 1000 nM; normal concentrations of EPO; until 20 h of treatment
Description: (§1) Umbilical cord blood units from normal full-term deliveries were obtained, after informed mother's consent, from the Obstetrics Unit of Hôpital Necker-Enfants Malades. CD36+ erythroid progenitors, generated from 7 days IL-6+IL3+SCF-cultured CD34 progenitors isolated from cord blood (Miltenyi CD34 Progenitor Cell Isolation Kit), were cultured in the presence of IL3+SCF+Epo in IMDM (Gibco cell culture) supplemented with 15% BIT 9500 (Stem Cell Technologies).

[2] = test system: CD36+ D8 cells; test: Erythroid maturation of CD36+ D8 cells (MGG observations); format: cell-based, human; details: 100 nM, 333 nM and 1000 nM, after 72 h of treatment, compared to non treated cells
[3] = test system: HSP70; test: HSP70 nuclear localization in myelodysplastic syndrome CD36+ D8 cells; format: cell-based, human; details: 100 nM, after 72 h of treatment, compared to non treated cells
Description: (§2) 5.10^4 cells were spin on slides, acetone fixated, hydrated with cold 1×PBS 1% BSA for 30 minutes, treated with formaldehyde for 15 min (Sigma), then with methanol (Prolabo) for 10 minutes at room temperature. Cells were then permeabilized with 1×PBS 0.2% triton X100 (Sigma) for 10 min at 4° C., washed and incubated in 10% BSA for 30 minutes. They were then sequentially incubated with antibodies diluted in 1×PBS 1% BSA 0.1% tween (Sigma). Nuclei were stained with DAPI and slides were examined with a confocal laser microscope (LSM 700 Carl Zeiss).

[4] = test system: CD36+ D6; test: Cell death of CD36+ D6 cells during EPO starvation; format: cell-based, human; details: EPO starvation during 20 h
Description: as §1

[5] = test system: HSP70; test: HSP70 nuclear retention in CD36+ D6 cells under EPO starvation; format: cell-based, human; details: CD36+ D6 from cord blood, after 20 h of treatment
Description: as §1, §2

[6] = test system: HSP70; details: erythroid precursor cells; cited from earlier work

Row | Compound | toxicity for CD36+ erythroid progenitors [1] | maturation index (mature*100/polychromatic) [2] | number of mature cells [2] | HSP70 nuclear localization [3] | decrease of cell death compared to the absence of KPT treatment ([4]; 100 nM) [%] | decrease of cell death compared to the absence of KPT treatment ([4]; 333 nM) [%] | HSP70 nuclear retention [5] | HSP70 nuclear retention [6]
1 | FC(F)(F)c1cc(-c2ncn(/C=C\c3nnco3)n2)cc(C(F)(F)F)c1 [KPT] | not toxic | increases | increases the number of mature cells | induces HSP70 nuclear localization | 49 | 39 | induces HSP70 nuclear retention | –
2 | CCC(=C/[C@H](C)C/C=C/C(C)=C/[C@@H](C)C(=O)[C@@H](C)[C@H](O)[C@@H](C)C/C(C)=C/C(=O)O)/C=C/[C@@H]1OC(=O)C=C[C@@H]1C [Leptomycin B] | – | – | – | – | – | – | – | induces HSP70 nuclear retention
